Test results published in patent US11014912B2, “Cyanopyrrolidine derivatives with activity as inhibitors of USP30” (MISSION THERAPEUTICS LIMITED, priority 2016, dated 2021).

These compounds were tested against USP30 (Homo sapiens (Human), UniProt Q70CQ3) (assay: USP30 biochemical IC50 assay). Details: fluorescence polarisation, TAMRA labelled peptide linked to ubiquitin substrate; enzyme and compound incubated 30 min at room temp; read after 2 h; read-out: IC50 range.
Protocol: USP30 Biochemical IC50 Assay
Dilution plates were prepared at 21 times the final concentration (2100 μM for a final concentration of 100 μM) in 50% DMSO in a 96-well polypropylene V-bottom plate (Greiner #651201). A typical 8-point dilution series would be 100, 30, 10, 3, 1, 0.3, 0.1, 0.03 μM final. Reactions were performed in duplicate in black 384 well plates (small volume, Greiner 784076) in a final reaction volume of 21 μl. Either 1 μl of 50% DMSO or diluted compound was added to the plate. USP30 was diluted in reaction buffer (40 mM Tris, pH 7.5, 0.005% Tween 20, 0.5 mg/ml BSA, 5 mM beta-mercaptoethanol) to the equivalent of 0.05 μl/well and 10 μl of diluted USP30 was added to the compound. Enzyme and compound were incubated for 30 min at room temp. Reactions were initiated by the addition of 50 nM of TAMRA labelled peptide linked to ubiquitin via an iso-peptide bond as fluorescence polarisation substrate. Reactions were read immediately after addition of substrate and following a 2 h incubation at room temperature. Readings were performed on a Pherastar Plus (BMG Labtech). A Excitation 540 nm; A Emission 590 nm.

Sequence of USP30 (Q70CQ3 57-517): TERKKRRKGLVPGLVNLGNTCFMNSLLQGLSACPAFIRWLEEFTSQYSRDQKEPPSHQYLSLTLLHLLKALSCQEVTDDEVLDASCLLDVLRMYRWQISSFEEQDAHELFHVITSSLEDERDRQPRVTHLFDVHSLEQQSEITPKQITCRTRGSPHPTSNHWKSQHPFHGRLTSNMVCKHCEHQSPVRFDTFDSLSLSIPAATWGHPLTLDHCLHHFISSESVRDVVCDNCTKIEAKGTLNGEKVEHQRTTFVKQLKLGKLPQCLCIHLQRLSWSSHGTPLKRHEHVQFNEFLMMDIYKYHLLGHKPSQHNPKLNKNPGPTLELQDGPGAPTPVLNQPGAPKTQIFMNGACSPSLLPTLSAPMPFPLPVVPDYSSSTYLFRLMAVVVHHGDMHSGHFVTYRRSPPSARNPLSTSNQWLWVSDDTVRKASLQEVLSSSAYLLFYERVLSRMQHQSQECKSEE

Row | IC50 [nM] | SMILES
1 | 10 to 100 | Cc1cc(C2CN(C(=O)C[C@@H]3CCN(C#N)C3)C2)ccc1C#N [Example 59, (S)-3-(2-(3-(4-cyano-3-methylphenyl)azetidin-1-yl)-2-oxoethyl)pyrrolidine-1-carbonitrile]
2 | 100 to 1000 | N#CN1CCC(CC(=O)NC2CN(c3ccccn3)C2)C1 (centres unmarked) [Example 47, 2-(1-cyanopyrrolidin-3-yl)-N-(1-(pyridin-2-yl)azetidin-3-yl)acetamide]
3 | 100 to 1000 | N#CN1CCC(CC(=O)Nc2cc(C(F)(F)F)ccn2)C1 (centres unmarked) [Example 45, 2-(1-cyanopyrrolidin-3-yl)-N-(4-(trifluoromethyl)pyridin-2-yl)acetamide]

Second part, the compound before the results:

Row | SMILES | IC50 [nM]
4 | COc1cccc(-c2cc(NC(=O)C[C@@H]3CCN(C#N)C3)on2)c1 [Example 37, (S)—N-(3-(3-Methoxyphenyl)isoxazol-5-yl)-2-(1-cyanopyrrolidin-3-yl)acetamide] | 100 to 1000
5 | N#CN1CCC(CC(=O)Nc2cccc(Cl)c2)C1 (centres unmarked) [Example 2, N-(3-Chlorophenyl)-2-(1-cyanopyrrolidin-3-yl)acetamide] | 100 to 1000
